# Measured values as given in patent US20070155736A1, “FLUORINATED PHNO AND ANALOGUES THEREOF” (Clara Inc., priority 2005, published 2007).
# Where a name gives a salt, the structure may show the parent alone.
# Key:
# rat cloned D3 receptor = target: T1, rat cloned D3 receptor (Rattus norvegicus, UniProt P19020); test: Binding to rat cloned D3 receptor using 1.6 nM [3H]-raclopride
# T1 construct: expressed in transfected cells
# Source text: (§1) It is herein submitted that the short-term use of tracer doses of a compound of the invention, wherein R^1 is C1-6alkyl in which one hydrogen atom on the alkyl chain in replaced with radioactive fluoro, in radioimaging procedures will be of diagnostic and therapeutic importance in dopamine-related disorders.
# [1] = target: T2, high-affinity state of dopamine D2 receptors (Rattus norvegicus, UniProt P61169); test: Biological potency on the high-affinity state of dopamine D2 receptors in rat homogenized striatal tissue; type: binding; conditions: [3H]-domperidone
# T2 construct: from tissue; host or cells: rat striatum, homogenized
# Source text: as §1
# D2^High receptors = D2^High receptors (Homo sapiens, UniProt P14416); conditions: human volunteer, PET
# Description: After a brief transmission scan for attenuation correction of the emission scans, emission scans are obtained every minute for the first 15 min, and then every 5 min until the end of the study at 75 min. The PET scanning is conducted by using a dedicated brain scanner, GEMS PC2048-15B PET camera (General Electric Medical Systems) that produces fifteen 6.5 mm-thick slices with a resolution of 5-6 mm. The volunteer is scanned lying down and the head fixed by using a thermoplastic face mask. For accurate anatomical position of the various brain regions, each volunteer receives an MRI (magnetic resonance imaging) scan. The regions of interest are transferred to the PET images by using Alice™ 3.1 software.
# The regions of interest include the head of the caudate nucleus. […] Several hours after the initial injection of (+)-[^18F]-PHNO, a second injection of (+)-[^18F]-PHNO is given intravenously at the same time as a very low dose of non-radioactive (+)PHNO, (+)-F-PHNO or a very low dose of apomorphine. […] The density of the D2^High sites in the caudate nucleus that are labeled by (+)-[^18F]-PHNO is calculated, knowing the specific activity of the tracer injected and the amount of radioactivity detected by the positron imaging camera.
# [2] = in vivo; cited from earlier work
# T1 sequence (P19020 whole entry): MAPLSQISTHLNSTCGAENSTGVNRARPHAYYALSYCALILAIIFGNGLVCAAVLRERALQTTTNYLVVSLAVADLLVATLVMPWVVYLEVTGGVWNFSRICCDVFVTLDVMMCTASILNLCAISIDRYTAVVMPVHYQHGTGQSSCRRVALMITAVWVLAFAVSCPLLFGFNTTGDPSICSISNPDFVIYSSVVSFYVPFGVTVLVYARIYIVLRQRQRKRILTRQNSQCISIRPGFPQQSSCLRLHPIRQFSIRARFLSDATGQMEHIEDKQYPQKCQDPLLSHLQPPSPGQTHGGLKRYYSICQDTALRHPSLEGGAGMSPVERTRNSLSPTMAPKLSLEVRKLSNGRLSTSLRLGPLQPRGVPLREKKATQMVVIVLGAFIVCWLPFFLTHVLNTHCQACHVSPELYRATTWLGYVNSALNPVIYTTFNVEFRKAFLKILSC
# T2 sequence (P61169 whole entry): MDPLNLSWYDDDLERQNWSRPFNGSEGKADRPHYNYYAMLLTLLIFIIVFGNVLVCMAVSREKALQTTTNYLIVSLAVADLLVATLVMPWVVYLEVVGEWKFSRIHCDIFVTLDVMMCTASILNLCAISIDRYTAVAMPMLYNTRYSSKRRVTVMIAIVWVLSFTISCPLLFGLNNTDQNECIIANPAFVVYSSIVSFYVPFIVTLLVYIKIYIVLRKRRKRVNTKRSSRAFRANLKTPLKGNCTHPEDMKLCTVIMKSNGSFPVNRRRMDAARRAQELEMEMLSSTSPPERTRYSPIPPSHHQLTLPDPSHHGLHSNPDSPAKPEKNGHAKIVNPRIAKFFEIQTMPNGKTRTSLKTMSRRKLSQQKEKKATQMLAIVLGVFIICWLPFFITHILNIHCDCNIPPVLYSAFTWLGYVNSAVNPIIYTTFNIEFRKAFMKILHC
# Chain of D2^High receptors (P14416 whole entry): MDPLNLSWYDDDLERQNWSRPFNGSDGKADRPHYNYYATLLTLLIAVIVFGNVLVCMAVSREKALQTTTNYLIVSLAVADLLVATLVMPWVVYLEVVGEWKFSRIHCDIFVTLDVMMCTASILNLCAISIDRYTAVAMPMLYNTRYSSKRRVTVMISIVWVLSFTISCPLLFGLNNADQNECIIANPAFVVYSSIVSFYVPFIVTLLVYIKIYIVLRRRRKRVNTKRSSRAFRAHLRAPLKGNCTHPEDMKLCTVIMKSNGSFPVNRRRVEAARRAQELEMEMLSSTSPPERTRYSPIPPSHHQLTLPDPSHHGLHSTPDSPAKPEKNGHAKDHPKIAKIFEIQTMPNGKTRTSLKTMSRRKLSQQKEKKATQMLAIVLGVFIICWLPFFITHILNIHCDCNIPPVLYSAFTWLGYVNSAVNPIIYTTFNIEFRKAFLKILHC
Compound,Kd (rat cloned D3 receptor) [nM],Kd [1] [nM],other results
"Oc1ccc2c(c1)[C@H]1OCCN(CCCCCCF)[C@@H]1CC2 [(+)-F-Hex-HNO, (4aR,10bR)-4-(6-Fluorohexyl)-3,4,4a,5,6,10b-hexahydro-2H-naphtho[1,2-b][1,4]oxazin-9-ol Hydrochloride]",45,52 ± 27,
"Oc1ccc2c(c1)[C@H]1OCCN(CCC[18F])[C@@H]1CC2 [(+)-[^18F]-PHNO, [^18F]-(4aR,10bR)-4-(3-fluoropropyl)-3,4,4a,5,6,10b-hexahydro-2H-naphtho[1,2-b][1,4]oxazin-9-ol]",,,peak emission in the caudate nucleus (D2^High receptors; at 10 minutes after i.v. injection): about 0.22 % of the injected dose per kg; time of peak emission in the caudate nucleus after intravenous injection (D2^High receptors; bolus plus infusion i.v.): 10 min
"CCCN1CCO[C@@H]2c3cc(O)ccc3CC[C@H]21.Cl [(+)PHNO, (+)-(4aR,10bR)-3,4,4a,5,6,10b-hexahydro-4-propyl-2H-naphth[1,2-b][1,4]oxazin-9-ol HCl]",,,effect in Parkinson's disease [2]: effective in alleviating Parkinson's disease
"Oc1ccc2c(c1)[C@H]1OCCN(CCCF)[C@@H]1CC2 (as salt: hydrochloride) [(+)-F-PHNO, (4aR,10bR)-4-(3-Fluoropropyl)-3,4,4a,5,6,10b-hexahydro-2H-naphtho[1,2-b][1,4]oxazin-9-ol Hydrochloride]",,,melting point: 253 to 255 °C

# Now from value to molecule, other results behind:
Kd (rat cloned D3 receptor) [nM],Kd [1] [nM],Compound,other results
1.7,1.7 ± 0.3,"Oc1ccc2c(c1)[C@H]1OCCN(CCF)[C@@H]1CC2 [(+)-F-EHNO, (4aR,10bR)-4-(2-Fluoroethyl)-3,4,4a,5,6,10b-hexahydro-2H-naphtho[1,2-b][1,4]oxazin-9-ol Hydrochloride]",
34,20 ± 8.7,"Oc1ccc2c(c1)[C@H]1OCCN(CCCCF)[C@@H]1CC2 [(+)-F-But-HNO, (4aR,10bR)-4-(4-Fluorobutyl)-3,4,4a,5,6,10b-hexahydro-2H-naphtho[1,2-b][1,4]oxazin-9-ol Hydrochloride]",
0.38,0.46 ± 0.06,"Oc1ccc2c(c1)[C@H]1OCCN(CCCF)[C@@H]1CC2 [(+)-F-PHNO, (4aR,10bR)-4-(3-Fluoropropyl)-3,4,4a,5,6,10b-hexahydro-2H-naphtho[1,2-b][1,4]oxazin-9-ol Hydrochloride]",
54,25 ± 4,"Oc1ccc2c(c1)[C@H]1OCCN(CCCCCF)[C@@H]1CC2 [(+)-F-Pent-HNO, (4aR,10bR)-4-(5-Fluoropentyl)-3,4,4a,5,6,10b-hexahydro-2H-naphtho[1,2-b][1,4]oxazin-9-ol Hydrochloride]",
